We go through two molecules from US20190374563A1, “TREATMENT OF KLEBSIELLA PNEUMONIAE INFECTIONS WITH ANTIBACTERIAL AMINOGLYCOSIDE COMPOUNDS” (Achaogen, Inc., priority 2009, published 2019).

Test [1] deals with P. aeruginosa ATCC 27853 (APAE001). The experiment in a line: MIC assay, CLSI broth microdilution. The test is classed as cell-based. As to conditions: Pseudomonas aeruginosa; Table 1; APAE001 is ATCC27853; read-out: MIC APAE001. Put shortly: (§1)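 CLSI M7-A7 broth microdilution in Mueller Hinton Broth using two-fold compound serial dilutions. Inoculum was prepared from the previous day's agar colonies at a final 5×10^5 CFU/mL. Plates were incubated at 35° C for 20 hours in ambient air.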
On the technique in general: Broth dilution looks for growth in wells or tubes with falling amounts of substance.

The subject of test [2] is E. coli ATCC 25922. The experiment in a line: murine septicemia model of infection. Format: in vivo. As to conditions: mice, single SC or IV dose 1 hour after IP challenge, mortality for 7 days; ED50 values are mg/kg. The protocol: (§2) Two models were run on each compound, using E. coli and P. aeruginosa QC bacterial strains. Both studies employed the same design. […] At 1 hour after bacterial challenge, the mice received a single SC or IV dose of vehicle or test substance to assess in vivo anti-infective activity. Mortality was recorded once daily for 7 days after bacterial inoculation.

Test [3] relates to P. aeruginosa ATCC 27853. The experiment in a line: murine septicemia model of infection. The test is classed as in vivo. The following applies: mice, single SC or IV dose 1 hour after IP challenge, mortality for 7 days; ED50 values are mg/kg. The protocol: as §2
Test [4] has as its system K. pneumoniae producing KPC (n = 25). The experiment in a line: MIC by microdilution, clinical isolates. Format: cell-based. As to conditions: Klebsiella pneumoniae, K. pneumoniae producing KPC (n = 25). The protocol: (§3) The in vitro activity of representative antibacterial aminoglycoside compounds against a collection of 102 K. pneumoniae clinical isolates collected from January 2006 to October 2007 at the University of Pittsburgh Medical Center, and three Cleveland institutions including University Hospitals Case Medical Center, the Cleveland Clinic, and the Louis Stokes Department of Veterans Affairs Medical Center was analyzed. The 102 K. pneumoniae isolates were selected based on a multidrug-resistant (MDR) phenotype (i.e., resistance to >3 antibiotic classes). Twenty-five isolates were KPC carbapenemase producing (KPC-Kp), and were part of a previous study where the β-lactamase background and clonality were characterized (see Endimiani, A., A. M. Hujer, F. Perez, C. R. Bethel, K. M. Hujer, J. Kroeger, M. Oethinger, D. L. Paterson, M. D. Adams, M. R. Jacobs, D. J. Diekema, G. S. Hall, S. G. Jenkins, L. B. Rice, F. C. Tenover, and R. A. Bonomo. 2009. Characterization of blaKPC-containing Klebsiella pneumoniae isolates detected in different institutions in the Eastern USA. J Antimicrob Chemother 63:427-37).
(§4) Minimum inhibitory concentrations (MICs) were performed by microdilution method using cation-adjusted Mueller-Hinton broth, according to the Clinical and Laboratory Standards Institute (CLSI) criteria (see CLSI. 2006. Methods for dilution antimicrobial susceptibility tests for bacteria that grow aerobically; approved standard-Seventh edition. Clinical and Laboratory Standard Institute, Wayne, Pa. CLSI document M7-A7). These MIC assays were conducted following the same protocol as set forth in Example 110. […] The following ATCC control strains were used: Escherichia coli ATCC 25922, Pseudomonas aeruginosa ATCC 27853, and K. pneumoniae ATCC 700603.

The test system of test [5] is multidrug-resistant (MDR) K. pneumoniae isolates (n = 102). The experiment in a line: MIC by microdilution, clinical isolates. The test is classed as cell-based. The protocol: as §3, §4
Test [6] relates to E. coli AECO 1003 (MDR, AG-resistant clinical isolate). The experiment in a line: murine neutropenic thigh model. Format: in vivo. As to conditions: highest dosage; AECO 1003, challenge 1.5×10^3 CFU; FIG. 2. The protocol:
(§5) The in vivo activity of Example 1 in the mouse neutropenic thigh model (Andes and Craig. Antimicrob Agents Chemother. 2002, 46:1665-1670) was determined against seven bacterial strains including susceptible Escherichia coli and Klebsiella pneumoniae; multi-drug resistant (MDR) clinical isolates of E. coli and K. pneumoniae that display resistance to multiple antibiotics (including AGs); MRSA; and two K. pneumoniae carbapenemases (KPC)-expressing strains (see Table 5). For this efficacy model, groups of six CD-1 mice were rendered neutropenic by two intraperitoneal injections of cyclophosphamide. The first injection was 150 mg/kg three days prior to infection (day −4), and the second injection was 100 mg/kg one day prior to infection (day −1). On study day 0, animals were inoculated intramuscularly (0.1 ml) with a known number of colony forming units (CFU) of the specified bacterial strain (ATCC 25922, AECO 1003, ATCC 43816, AKPN 1073, AKPN 1109, ATCC 33591 or ASMA 1030), tailored to the virulence of each strain in the model to maximize bacterial load while avoiding mortality in the untreated control arms. Antibiotics were administered via subcutaneous injection at 2 and 14 hours after bacterial challenge. At 26 hours, infected thigh tissue was harvested, homogenized, and plated to count CFU. […]

For test [7], the system named is K. pneumoniae AKPN 1073 (MDR, AG-resistant clinical isolate). The experiment in a line: murine neutropenic thigh model. As to conditions: two highest dosages; AKPN 1073, challenge 1.3×10^4 CFU; FIG. 3. Format: in vivo. On the procedure:
as §5

Test [8] deals with E. coli ATCC 25922 (susceptible). The experiment in a line: murine neutropenic thigh model. Format: in vivo. The protocol: (§6) The in vivo activity of Example 1 in the mouse neutropenic thigh model (Andes and Craig. Antimicrob Agents Chemother. 2002, 46:1665-1670) was determined against seven bacterial strains including susceptible Escherichia coli and Klebsiella pneumoniae; multi-drug resistant (MDR) clinical isolates of E. coli and K. pneumoniae that display resistance to multiple antibiotics (including AGs); MRSA; and two K. pneumoniae carbapenemases (KPC)-expressing strains (see Table 5). For this efficacy model, groups of six CD-1 mice were rendered neutropenic by two intraperitoneal injections of cyclophosphamide. The first injection was 150 mg/kg three days prior to infection (day −4), and the second injection was 100 mg/kg one day prior to infection (day −1). On study day 0, animals were inoculated intramuscularly (0.1 ml) with a known number of colony forming units (CFU) of the specified bacterial strain (ATCC 25922, AECO 1003, ATCC 43816, AKPN 1073, AKPN 1109, ATCC 33591 or ASMA 1030), tailored to the virulence of each strain in the model to maximize bacterial load while avoiding mortality in the untreated control arms. Antibiotics were administered via subcutaneous injection at 2 and 14 hours after bacterial challenge. At 26 hours, infected thigh tissue was harvested, homogenized, and plated to count CFU. Untreated control animals were harvested at 2 hours post-infection to assess the initial bacterial load and at 26 hours post-infection to measure growth in the absence of antibiotic treatment.

Test [9] has as its system K. pneumoniae AKPN 1109 (KPC-expressing clinical isolate). The experiment in a line: murine neutropenic thigh model. Format: in vivo. As to conditions: highest test dosage; AKPN 1109, challenge 8.3×10^5 CFU; FIG. 4. On the procedure: as §6
The test system of test [10] is K. pneumoniae ATCC 43816 (susceptible). The experiment in a line: murine neutropenic thigh model. The test is classed as in vivo. The protocol: as §6
The test system of test [11] is S. aureus ATCC 33591 (MRSA). The experiment in a line: murine neutropenic thigh model. Format: in vivo. As to conditions: two highest dosages; MRSA ATCC 33591, challenge 1.2×10^3 CFU; FIG. 5. The protocol:
as §5

Test [12] has as its system seven bacterial strains. The experiment in a line: murine neutropenic thigh model, statements over all strains. The test is classed as in vivo. The protocol:
as §6

Test [13] concerns E. coli ATCC 25922 (AECO001). The experiment in a line: MIC assay, CLSI broth microdilution. The test is classed as cell-based. Also on record: MIC AECO001: unit not given here. The following applies: Table 3; E. coli ATCC25922. Put shortly:
as §1

Test [14] relates to A. calcoaceticus AACA005, AAC(6′)-I. The experiment in a line: MIC assay, aminoglycoside resistant strain. The test is classed as cell-based. Also on record: unit not given beside the values. As to conditions: Table 3; A. calcoaceticus AAC(6′)-I. On the procedure: (§7) Minimum inhibitory concentrations (MIC) were determined by reference Clinical and Laboratory Standards Institute (CLSI) broth microdilution methods per M7-A7 [2006]. Quality control ranges utilizing E. coli ATCC 25922, P. aeruginosa ATCC 27853 and S. aureus ATCC 29213, and interpretive criteria for comparator agents were as published in CLSI M100-S17 [2007]. Briefly, serial two-fold dilutions of the test compounds were prepared at 2× concentration in Mueller Hinton Broth. The compound dilutions were mixed in 96-well assay plates in a 1:1 ratio with bacterial inoculum. The inoculum was prepared by suspension of a colony from an agar plate that was prepared the previous day. Bacteria were suspended in sterile saline and added to each assay plate to obtain a final concentration of 5×10^5 CFU/mL. The plates were incubated at 35° C. for 20 hours in ambient air.
(§8) These MIC assays were conducted following the same protocol as set forth in Example 110. As shown, substituted sisomicin derivatives with groups other than methyl at the 6′-position have improved activity against strains expressing the AAC6′-modifying enzymes.

Test [15] concerns E. coli AECO040, AAC(6′)-I. The experiment in a line: MIC assay, aminoglycoside resistant strain. The test is classed as cell-based. Also on record: unit not given beside the values. The following applies: Table 3; E. coli AAC(6′)-I. The protocol: as §7, §8

By MIC50 is commonly meant the lowest concentration that inhibits either 50% of growth or 50% of the strains tested, depending on the study. A word on the MIC90: it is an inhibitory concentration at the 90% level, which refers to growth in some studies and to a panel of isolates in others.

Each structure is given as a SMILES string. Values after ≈ are worked out from the molar mass of the structure shown.

For `CN[C@@H]1[C@@H](O)[C@@H](O[C@@H]2[C@@H](O)[C@H](O[C@H]3OC(CNCCO)=CC[C@H]3N)[C@@H](N)C[C@H]2NC(=O)[C@@H](O)CCN)OC[C@]1(C)O` [Example 1, 6′-(2-Hydroxy-ethyl)-1-(4-amino-2(S)-hydroxy-butyryl)-sisomicin], the MIC in test [1] was 1 to 16 mg/L (≈ 1.69 to 27 µM); in test [5] (Klebsiella pneumoniae, all MDR and KPC-Kp strains, read-out: MICs for all strains), not above 4 mg/L. The “ED50/MIC E. Coli” value in test [2] is listed as less than 2. Moreover, in [3], the “ED50/MIC P. aeruginosa” value is 4. In addition, the MIC50 is 0.5 mg/L (≈ 0.844 µM) in test [4] (read-out: MIC50) and 0.5 mg/L (≈ 0.844 µM) in [5] (Klebsiella pneumoniae, Total MDR K. pneumoniae isolates (n = 102), read-out: MIC50). Further, the MIC90 in test [4] (read-out: MIC90) stood at 1 mg/L (≈ 1.69 µM); in test [5] (Klebsiella pneumoniae, Total MDR K. pneumoniae isolates (n = 102), read-out: MIC90), 1 mg/L (≈ 1.69 µM). Besides, the “MIC90 lower than that of amikacin” value in [5] (MDR and KPC-Kp strains) is “at least 5 twofold dilutions”. Further, the “bacterial titer after 24 hours of treatment versus initial bacterial load” value in [6] is recorded as “reduced to below the initial bacterial load”. For the same molecule, the “bacterial load after 24 hours of treatment versus initial bacterial load” value in test [7] was “reduced to below the level of the initial bacterial load”; in [9] it was “reduced back to the level of the initial bacterial load”; in test [11], “reduced to below the initial bacterial load”. Also, the ED50/MIC came to 8.4 in [8] and 7.4 in test [10]. Besides, the “bacterial titers versus initial bacterial load (static level)” value in [12] (all 7 strains) is reported as “reducing bacterial titers back to or below the initial bacterial load”. The “ED50 against gentamicin resistant strains” value in test [12] (gentamicin resistant strains) is recorded as “efficacious”. Besides, in test [12] (in words), the “ratio of in vivo efficacy to in vitro activity (ED50/MIC)” value is “comparable to that of gentamicin”. For the same molecule, the “in vivo efficacy (ED50) against strains susceptible to gentamicin” value in test [12] (strains susceptible to gentamicin, in words) is recorded as “comparable to gentamicin”.

On to `CN[C@@H]1[C@@H](O)[C@@H](O[C@@H]2[C@@H](O)[C@H](O[C@H]3OC(CN)=CC[C@H]3N)[C@@H](N)C[C@H]2N)OC[C@]1(C)O` [Sisomicin], for which the “MIC AECO001” value in [13] stood at 0.5. The “MIC AACA005” value in [14] is listed as 32. In test [15], the “MIC AECO040” value is reported as 32.
